The text below walks through data of article PMC10819979, “Antitumor Mechanism and Therapeutic Potential of Cordycepin Derivatives” (Molecules, 2024).

Series [1] deals with MCF7 cells. As to the kind of experiment: MTT cell proliferation assay, MCF7. The note with it: Homo sapiens, 48 h incubation, x̄ ± s, n = 6. It is filed as cell-based. Here is the method: (§1) MCF7, HepG2, SGC-7901 and MCF-10A were purchased from the National Infrastructure of Cell Line Resources in the Chinese Academy of Sciences (Shanghai Institute of Biochemistry and Cell Biology, Shanghai, China). Cells were maintained using RPMI-1640 medium with 10% fetal bovine serum. The cells were maintained at 37 °C in a 5% CO2-containing incubator for all treatments. Logarithmic growth phase cells were used in all experiments.
(§2) The effect of compounds on the proliferation of cancer cells was determined with an MTT assay. Cells monolayer in exponential growth were seeded in 96-well plates at 5 × 10^3 cells/well. After cultured at 37 °C for 24 h, the culture medium was removed, then compounds (3a–4c) (1.25, 2.5, 5, 10, 20, 40, 80 μM) and HCPT (4, 8, 16 μM) were added. After 48 h incubation, 100 µL of MTT was added to each well and then cultured for 4 h in a 37 °C incubator. After that, the medium was aspirated, 150 µL of DMSO was then added to each well, and the 96-well plates were placed on an orbital shaker for 12 min until the formazan dissolved completely. The absorbance was measured at a test wavelength of 490 nm with a microplate reader, the optical density (OD) values were tested and the inhibitory rate and half inhibitory concentration (IC50) were calculated for each administration group.
On the technique in general: Tetrazolium dyes change colour on reduction, which living cells bring about.

In a further series the test system is HepG2 cells. As to the kind of experiment: MTT cell proliferation assay, HepG2. It is filed as cell-based. The settings on record: Homo sapiens, 48 h incubation, x̄ ± s, n = 6. Here is the method:
as §1, §2

The test system of another series is SGC-7901 cells. Put plainly: MTT cell proliferation assay, SGC-7901. The settings on record: Homo sapiens, 48 h incubation, x̄ ± s, n = 6. Format: cell-based. The procedure:
as §1, §2

The test system of the next series is MCF-10A cells. Put plainly: In vitro cytotoxicity against normal breast cell line. It is filed as cell-based. The procedure: as §1, §2
In series [2] the test system is MCF7 cells. As to the kind of experiment: Apoptosis of MCF7 cells by flow cytometry. Format: cell-based. The settings on record: MCF7, 56 μM, 48 h, n = 3. Here is the method: Cells were cultured in the medium for 24 h and treated with compounds in different concentrations and HCPT incubated for 48 h. The cells were centrifuged at 1000 rpm for 10 min and washed with PBS. Subsequently, the cells were […] stained with annexin V-FITC (10 μL) and propidium iodide (PI; 10 μL). The proportion of apoptotic cells was then measured by flow cytometry.
In general terms: Flow cytometry measures light scatter and fluorescence of single cells or particles in a stream.

Series [3] deals with MCF7 cells. As to the kind of experiment: Cell cycle detection by flow cytometry (PI). It is filed as cell-based. The settings on record: 14, 28 and 56 μM, dose-dependent. Here is the method:
After the treatments, the harvested cells were incubated at 70% in ice-ethanol overnight. Subsequently, they were washed twice using PBS and incubated with propidium iodide (PI) and RNase A. Finally, the proportions of cells in different cell cycle phases were determined by flow cytometry.

For series [4], the system named is MCF7 cells. As to the kind of experiment: Mitochondrial membrane potential assay (rhodamine 123, flow cytometry). Format: cell-based. The settings on record: MCF7, dose–effect relationship. Here is the method: MCF7 cells were cultured in 6-well plates, after treatment with compounds in different concentrations and positive control group (HCPT), cells were harvested, washed with PBS, and then stained with rhodamine 123 (100 µg) for 30 min at 37 °C. The cells were collected by pipetting, washed twice with PBS and analyzed by flow cytometry (BD Biosciences, San Jose, CA, USA).

The next series has as its system Bcl-2. Put plainly: Western Blot, Bcl-2 expression in MCF7 cells. The note with it: MCF7, 14, 28, 56 μM, 48 h. It is filed as cell-based. The procedure:
(§3) Cells were cultured in the medium for 24 h and treated with compounds in different concentrations and HCPT for 48 h. After lysis buffer (RIPA: PMSF = 100:1) was used to lyse cells. The lysate was further sonicated and centrifuged at 12,000 rpm for 15 min, then the supernatant obtained was collected and the denatured protein mixture was subjected to SDS gel electrophoresis and transferred to nitrocellulose membranes, and blocked with containing 5% nonfat milk. Then, the membranes were incubated with the primary antibodies (1:1000, overnight 4 °C) and secondary antibodies (1:5000, 1 h). Then, ECL Solution was used to detect the antigen–antibody complexes. The data were analyzed by NIH Image J 1.53a software.

A further series concerns Caspase-9. As to the kind of experiment: Western Blot, Caspase-9 expression in MCF7 cells. Format: cell-based. The settings on record: MCF7, 14, 28, 56 μM, 48 h. Here is the method: as §3
(In western blotting, separated proteins are transferred to a membrane and probed.)

The subject of the next series is Caspase-3. As to the kind of experiment: Western Blot, Caspase-3 expression in MCF7 cells. The note with it: MCF7, 14, 28, 56 μM, 48 h. It is filed as cell-based. The procedure:
as §3

For the next series, the system named is Bax. As to the kind of experiment: Western Blot, Bax expression in MCF7 cells. It is filed as cell-based. The settings on record: MCF7, 14, 28, 56 μM, 48 h. The procedure: as §3
For another series, the system named is p53. As to the kind of experiment: Western Blot, p53 expression in MCF7 cells. It is filed as cell-based. The note with it: MCF7, 14, 28, 56 μM, 48 h. The procedure: as §3
A further series relates to MCF7. Also noted: method as in PMID 32163051, PMID 22821173. The note with it: breast cancer cell viability; cited from earlier work.
Another series deals with MDA-MB-453 cells. Also noted: method as in PMID 32163051, PMID 22821173. The settings on record: breast cancer cell viability; cited from earlier work.

As to `CC[C@@]1(O)C(=O)OCc2c1cc1n(c2=O)Cc2cc3cc(O)ccc3nc2-1` [10-hydroxycamptothecin (HCPT), 10-hydroxycamptothecin, reference compound], the IC50 (in general, the concentration that gives 50% inhibition) in the series on MCF7 cells [1] was found to be 7.56 ± 0.05 µM; with HepG2 cells, 6.56 ± 0.45 µM; in the series on SGC-7901 cells, 7.96 ± 0.65 µM.
On the same counts, the results for `CC(C)(C)[Si](C)(C)OC[C@@H]1C[C@@H](O)[C@H](n2cnc3c(NC(=O)c4cccs4)ncnc32)O1` [Compound 3a, 5′-O-(Tert-butyldimethylsilyl)-6-thiophenecarboxamide-3′-deoxya-denosine] are 114 ± 2.03 µM, 134 ± 5.12 µM and 102 ± 1.08 µM.
The matching figures for `CC(C)(C)[Si](C)(C)OC[C@@H]1C[C@@H](O)[C@H](n2cnc3c(NC(=O)c4ccco4)ncnc32)O1` [Compound 3b, 5′-O-(Tert-butyldimethylsilyl)-6-furancarboxamide-3′-deoxyadenosine]: 98.03 ± 0.04 µM, 60.4 ± 1.15 µM and 41.7 ± 2.36 µM.
The matching figures for `CC(C)(C)[Si](C)(C)OC[C@@H]1C[C@@H](O)[C@H](n2cnc3c(NC(=O)c4ccc(Cl)nc4)ncnc32)O1` [Compound 3c, 5′-O-(Tert-butyldimethylsilyl)-6-6-chloroformamide-3′-deoxya-denosine]: 45.8 ± 1.01 µM, 87.01 ± 0.04 µM and 82.6 ± 1.48 µM.
Take `O=C(Nc1ncnc2c1ncn2[C@@H]1O[C@H](CO)C[C@H]1O)c1cccs1` [Compound 4a, 6-Thiophenecarboxamide-3′-deoxyadenosine]: the IC50 turned out to be 27.6 ± 0.52 µM with MCF7 cells [1], 68.8 ± 3.34 µM in the series on HepG2 cells and 38.93 ± 0.06 µM in the series with SGC-7901 cells. The “in vitro cytotoxicity against MCF-10A” value in the series with MCF-10A cells was “low toxicity”. Moreover, the “percentage of apoptotic cells” value in the series with MCF7 cells [2] is recorded as 50.422 ± 1.862%. In the series with MCF7 cells [3], the “effect on MCF7 cell cycle” value is on record as “cell cycle arrest at the G0/G1 phase”. In addition, in the series on MCF7 cells [4], the “positive expression rate and cell membrane potential with increase in dose” value is “decrease gradually”. Further, the “expression of Bcl-2 protein” value in the series with Bcl-2 is listed as “down-regulate”. In addition, the “expression of Caspase-9” value in the series with Caspase-9 is listed as “up-regulate”. Also, the “expression of Caspase-3” value in the series on Caspase-3 is “up-regulate”. Moreover, the “expression of Bax” value with Bax was “up-regulate”. Also, in the series with p53, the “expression of p53” value is listed as “up-regulate”.
As to `O=C(Nc1ncnc2c1ncn2[C@@H]1O[C@H](CO)C[C@H]1O)c1ccco1` [Compound 4b, 6-Furancarboxamide-3′-deoxyadenosine], the values for the IC50 with MCF7 cells [1], in the series with HepG2 cells and with SGC-7901 cells were 40.9 ± 1.67 µM, 33.37 ± 0.08 µM and 86.3 ± 2.35 µM, respectively.
On to `O=C(Nc1ncnc2c1ncn2[C@@H]1O[C@H](CO)C[C@H]1O)c1ccc(Cl)nc1` [Compound 4c, 6-6-Chloronicotinamide-3′-deoxyadenosine], for which the IC50 in the series on MCF7 cells [1] came to 45.3 ± 0.58 µM; with HepG2 cells, 48.4 ± 0.79 µM; in the series on SGC-7901 cells, 80.4 ± 1.05 µM.
On to `Nc1ncnc2c1ncn2[C@@H]1O[C@H](CO)C[C@H]1O` [Cordycepin], for which the IC50 in the series on MCF7 cells [1] is 46.9 ± 1.62 µM; in the series with HepG2 cells it was 51.8 ± 1.36 µM; in the series on SGC-7901 cells, 51.3 ± 3.77 µM; in the series on MCF7, 135 µM; with MDA-MB-453 cells it was 70 µM.
